8 compounds from ChEMBL document CHEMBL1201862, “PubChem BioAssay data set” (2004) can be followed below.

Several values for one entry are separate records, joined by “and”; a condition that tells them apart may be missing. Equal values may be shown once. Activity calls are given as the source filed them.

Experiment [1] can be described thus: cells.
Experiment [2] can be described thus: cells. The note with it: HEK293.
A short description of experiment [3]: viability loss in HepG2 liver cells – cell-based, ATP luminescence, cherry-pick, set 6, cytotoxicity control, dose response (AID 1053125). Format: functional.
Experiment [4] addresses Potassium channel subfamily K member 9 (Homo sapiens, UniProt Q9NPC2). In words: KCNK9 flux blockade, concentration-response – cell-based, FluxOR thallium flux, selectivity assay for TASK1 inhibitor project, SAR follow-up (AID 652211).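 Note: potency is for inhibitors of the channel.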 The format is functional.
Experiment [5] has as its target Potassium channel subfamily K member 3 (Homo sapiens, UniProt O14649). In words: inhibition of human KCNK3 channel flux – CHO cells, FluxOR thallium flux, SAR follow-up (AID 652212). Format: functional.
Experiment [6] in a line: viability of BHK-21 cells – cell-based, secondary screen, cytotoxicity control for flavivirus guanylyltransferase probe project (AID 624078). Format: functional.
Experiment [7] concerns the target NAD-dependent protein deacylase sirtuin-5, mitochondrial (Homo sapiens, UniProt Q9NXA8). In words: blockers of sirtuin-5 peptide desuccinylation – biochemical, fluorescence imaging, cherry-pick, set 6, dose response (AID 720597).
Experiment [8] can be described thus: inhibitors of non-replicating M. tuberculosis, dose response, luciferase, dry powder (AID 651619). Format: functional. The note with it: Mycobacterium tuberculosis.
A short description of experiment [9]: inhibitors of non-replicating M. tuberculosis, dose response, luciferase, dry powder (AID 651620). The note with it: Mycobacterium tuberculosis. The format is functional.
Experiment [10] has as its target C-C chemokine receptor type 6 (Homo sapiens, UniProt P51684). In words: SAR analysis of small molecule antagonists of the CXCR6 receptor using a CCR6 receptor luminescent beta-arrestin counterscreen. The format is functional. (In general: Counterscreens check selectivity or assay interference.)
Experiment [11] deals with C-X-C chemokine receptor type 4 (Homo sapiens, UniProt P61073). The experiment is described as follows: SAR analysis of small molecule antagonists of the CXCR6 receptor using a CXCR4 receptor luminescent beta-arrestin counterscreen. Format: functional.
Chain of C-X-C chemokine receptor type 4 (P61073 whole entry): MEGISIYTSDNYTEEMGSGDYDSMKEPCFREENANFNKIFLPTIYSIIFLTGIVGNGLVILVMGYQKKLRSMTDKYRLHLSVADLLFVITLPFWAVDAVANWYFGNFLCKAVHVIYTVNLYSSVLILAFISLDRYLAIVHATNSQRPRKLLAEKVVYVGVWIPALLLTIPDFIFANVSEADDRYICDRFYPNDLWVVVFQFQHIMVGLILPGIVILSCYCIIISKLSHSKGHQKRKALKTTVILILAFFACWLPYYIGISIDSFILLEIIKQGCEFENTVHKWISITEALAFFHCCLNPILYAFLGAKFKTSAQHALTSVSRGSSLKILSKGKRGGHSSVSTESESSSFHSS
Experiment [12] in a line: antimalarial activity against Dd2 parasites – SYBR Green fluorescence, erythrocytes, dry powder, set 2, dose response (AID 1159574). Format: functional, cell-based.

Chain of Potassium channel subfamily K member 3 (O14649 whole entry): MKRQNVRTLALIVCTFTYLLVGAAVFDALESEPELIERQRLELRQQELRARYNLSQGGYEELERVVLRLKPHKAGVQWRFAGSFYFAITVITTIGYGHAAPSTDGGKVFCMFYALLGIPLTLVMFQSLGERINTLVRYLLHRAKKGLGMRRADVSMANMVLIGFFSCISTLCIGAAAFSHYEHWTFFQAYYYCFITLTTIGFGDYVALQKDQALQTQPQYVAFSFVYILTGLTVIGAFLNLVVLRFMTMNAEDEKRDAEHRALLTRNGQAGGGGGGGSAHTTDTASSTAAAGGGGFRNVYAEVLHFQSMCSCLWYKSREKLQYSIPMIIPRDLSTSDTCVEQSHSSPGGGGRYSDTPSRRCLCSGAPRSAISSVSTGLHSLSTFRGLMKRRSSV
Chain of C-C chemokine receptor type 6 (P51684 whole entry): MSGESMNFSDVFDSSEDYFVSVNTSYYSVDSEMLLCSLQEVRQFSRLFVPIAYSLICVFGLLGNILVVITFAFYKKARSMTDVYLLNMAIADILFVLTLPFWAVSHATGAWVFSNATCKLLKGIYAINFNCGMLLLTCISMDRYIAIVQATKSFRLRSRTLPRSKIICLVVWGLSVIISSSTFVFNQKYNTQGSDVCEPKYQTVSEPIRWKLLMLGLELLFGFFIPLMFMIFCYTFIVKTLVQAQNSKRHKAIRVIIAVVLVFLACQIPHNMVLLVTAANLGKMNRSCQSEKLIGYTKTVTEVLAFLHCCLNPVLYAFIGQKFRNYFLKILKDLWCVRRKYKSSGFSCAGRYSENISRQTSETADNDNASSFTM
Chain of Potassium channel subfamily K member 9 (Q9NPC2 whole entry): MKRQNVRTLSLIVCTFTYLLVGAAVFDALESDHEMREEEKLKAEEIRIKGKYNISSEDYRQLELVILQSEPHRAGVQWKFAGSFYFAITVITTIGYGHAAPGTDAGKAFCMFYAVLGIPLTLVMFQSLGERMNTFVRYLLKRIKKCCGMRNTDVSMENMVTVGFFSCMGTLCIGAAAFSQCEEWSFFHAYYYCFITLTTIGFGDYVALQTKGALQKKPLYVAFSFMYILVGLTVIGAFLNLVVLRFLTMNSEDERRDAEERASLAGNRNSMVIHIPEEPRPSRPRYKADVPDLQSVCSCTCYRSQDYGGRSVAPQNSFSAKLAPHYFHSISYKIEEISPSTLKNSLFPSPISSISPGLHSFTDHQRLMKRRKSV
Chain of NAD-dependent protein deacylase sirtuin-5, mitochondrial (Q9NXA8 whole entry): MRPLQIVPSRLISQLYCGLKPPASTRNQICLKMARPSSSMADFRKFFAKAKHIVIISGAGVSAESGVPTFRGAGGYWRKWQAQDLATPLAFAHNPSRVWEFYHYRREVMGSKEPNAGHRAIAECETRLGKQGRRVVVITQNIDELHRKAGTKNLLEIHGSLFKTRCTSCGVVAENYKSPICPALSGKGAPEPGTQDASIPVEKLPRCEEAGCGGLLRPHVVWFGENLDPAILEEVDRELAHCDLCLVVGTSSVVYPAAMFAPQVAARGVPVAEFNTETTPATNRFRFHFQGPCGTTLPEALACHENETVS

The AC50 is the concentration giving half of the maximal activity seen. Regarding `CC(=O)OC[C@@H]1CN(Cc2ccccc2)C[C@H](n2cnc3c(N(C)C(C)C)ncnc32)O1`, the AC50 in “cells [1]” is 28.8 µM (active).
Consider `Cc1c(C(=O)NCc2cccc(C(F)(F)F)c2)sc(=O)n1Cc1ccc(C(=O)N(C)C)cc1`, for which the AC50 (in “cells [2]”; in [3]) was > 52 µM (inactive) throughout.
For orientation: IC50 means the concentration that inhibits the measured activity by half. On to `COc1ccc(F)cc1C(=O)Nc1cccc(NC(=O)c2cccc(C)c2)c1`, for which the half-maximal inhibitory concentration (IC50) in experiment [4] is 0.87 µM (active); in [5] it was 0.225 µM (active).
Usually CC50 stands for the concentration that lowers cell viability or growth by half. Turning to `O=C(O)CSc1cc(NS(=O)(=O)c2cccc3cccnc23)c2ccccc2c1O`, the CC50 in [6] was 6.1 µM (active).
For the compound `Cc1noc(C)c1NC(=O)Nc1ccc2c(c1)C(=O)N([C@H](C)CO)C[C@H](C)[C@@H](CN(C)Cc1ccc(C(F)(F)F)cc1)OCCCC[C@@H](C)O2`, the AC50 in [7] is > 30 µM (inactive).
A word on the IC90: it is the point of the concentration-response curve where the effect stands at 90%. For the compound `[N-]=[N+]=NCCOCCNC(=O)CCCOc1ccc(C[S+]([O-])c2nnc(-c3ccc(Cl)cc3)o2)nc1` (configuration not stated), the IC90 in experiment [8] and in [9] was 8 µM (active) each time.
Consider `COc1cc(C(=O)NC2CC3CCCC(C2)N3CC(=O)Nc2ccccc2Cl)cc(OC)c1OC` (configuration not stated), for which the IC50 is > 79 µM (inactive) in experiment [10]; > 79 µM (inactive) and 60.1 µM (inactive) in experiment [11].
For `O=C(c1ccccc1F)N1CC(=O)N2[C@H](C1)[C@H](c1ccc(-c3cccnc3)cc1)[C@@H]2CO`, the AC50 in experiment [12] was 19.4 µM (active).
